{"source": "ChEMBL document CHEMBL5154644", "about": "“Design, Synthesis, and Structure-Activity Relationship Optimization of Pyrazolopyrimidine Amide Inhibitors of Phosphoinositide 3-Kinase γ (PI3Kγ)” (J Med Chem, 2022)", "key": {"Cytochrome P450 2B6": {"target": "T1, Cytochrome P450 2B6 (Homo sapiens, UniProt P20813)", "T1 sequence (P20813 whole entry)": "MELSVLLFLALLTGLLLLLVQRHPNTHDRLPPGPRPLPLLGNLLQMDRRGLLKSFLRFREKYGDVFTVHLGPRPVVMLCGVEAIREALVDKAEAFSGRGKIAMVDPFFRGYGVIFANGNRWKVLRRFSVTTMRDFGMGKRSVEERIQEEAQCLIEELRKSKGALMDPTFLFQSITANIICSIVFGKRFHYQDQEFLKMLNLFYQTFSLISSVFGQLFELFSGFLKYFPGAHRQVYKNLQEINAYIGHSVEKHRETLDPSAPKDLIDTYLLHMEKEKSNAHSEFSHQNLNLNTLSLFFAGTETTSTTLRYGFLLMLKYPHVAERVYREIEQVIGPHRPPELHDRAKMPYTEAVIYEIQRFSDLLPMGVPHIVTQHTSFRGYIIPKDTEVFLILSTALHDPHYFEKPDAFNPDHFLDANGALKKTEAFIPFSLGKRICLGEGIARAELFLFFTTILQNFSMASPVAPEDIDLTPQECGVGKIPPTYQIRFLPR", "experiment": "Time dependent inhibition of CYP2B6 in human liver microsomes at 40 uM measured after 5 to 20 mins in presence of NADPH by LC/MS/MS analysis", "format": "ADME, Microsome"}, "Cytochrome P450 2C9": {"target": "Cytochrome P450 2C9 (Homo sapiens, UniProt P11712)", "sequence (P11712 whole entry)": "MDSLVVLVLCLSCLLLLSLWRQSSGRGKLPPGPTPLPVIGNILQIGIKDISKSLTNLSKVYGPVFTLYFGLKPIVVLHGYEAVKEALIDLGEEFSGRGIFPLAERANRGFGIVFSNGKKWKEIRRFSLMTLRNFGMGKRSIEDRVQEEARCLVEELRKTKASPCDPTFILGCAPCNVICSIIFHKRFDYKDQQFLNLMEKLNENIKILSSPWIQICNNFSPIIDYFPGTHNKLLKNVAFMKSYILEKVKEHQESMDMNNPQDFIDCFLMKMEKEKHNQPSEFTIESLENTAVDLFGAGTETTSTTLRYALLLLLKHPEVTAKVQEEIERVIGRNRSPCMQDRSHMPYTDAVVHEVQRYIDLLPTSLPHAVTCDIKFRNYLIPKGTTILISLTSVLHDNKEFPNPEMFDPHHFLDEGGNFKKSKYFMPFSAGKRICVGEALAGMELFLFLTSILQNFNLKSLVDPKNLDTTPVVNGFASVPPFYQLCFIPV", "experiment": "Time dependent inhibition of CYP2C9 in human liver microsomes at 40 uM using diclofenac as substrate measured after 5 to 20 mins in presence of NADPH by LC/MS/MS analysis", "format": "ADME, Microsome"}}, "data": [{"compound": "C[C@@H](C1CC1)N1Cc2cc(-c3ccn4nc(N)c(C(=O)N[C@H]5CC[C@@](C)(O)CC5)c4n3)cc(OC(F)F)c2C1=O", "values": [{"measurement": "IC50", "setting": "Cytochrome P450 2B6", "value": "> 20", "unit": "µM"}, {"measurement": "IC50", "setting": "Cytochrome P450 2C9", "value": "> 20", "unit": "µM"}]}]}
